Results: patent US7838275B2, “Anti-HIV and anti-tumor peptides and fragments of lysozyme” (priority 2000, dated 2010)
Read-outs that look alike come from different tables or passages of the source. Peptide text beside a SMILES is read from it.

Key:
[1] = tested on: HHV8 infected cells of AIDS patients with Kaposi's sarcoma
HIV-1 = tested on: HIV-1
Method: Human lysozyme (2 mg) was treated with clostripain (10 units, Sigma) in 400 μl of Tris buffer, pH7.6 at 37° C. for 24 h. The digest was resolved by reversed phase chromatography on a ProRPC column (Hr5/10). […] The fractions were assayed for anti-HIV activity by p24 production in HIV-1 infected ACH2 T lymphocytes as described in Lee-Huang et al. (1999).

Compound | EC50 (HIV-1; 24 h) [µM] | Anti-HIV activity (EC50) (HIV-1) | other results
CC[C@H](C)[C@H](NC(=O)CNC(=O)[C@H](CCC(N)=O)NC(=O)[C@@H]1CCCN1C(=O)[C@H](CC(=O)O)NC(=O)[C@H](CCCNC(=N)N)NC(=O)[C@@H](NC(=O)[C@@H](NC(=O)[C@@H](N)CCCNC(=N)N)C(C)C)C(C)C)C(=O)N[C@@H](CCCNC(=N)N)C(=O)N[C@@H](C)C(=O)N[C@@H](Cc1c[nH]c2ccccc12)C(=O)N[C@H](C(=O)N[C@@H](C)C(=O)N[C@@H](Cc1c[nH]c2ccccc12)C(=O)N[C@@H](CCCNC(=N)N)C(=O)N[C@@H](CC(N)=O)C(=O)N[C@@H](CCCNC(=N)N)C(=O)O)C(C)C [HL18, RVVRDPQGIRAWVAWRNR] (H-RVVRDPQGIRAWVAWRNR-OH; N-terminus and C-terminus assumed) | 0.058 | – | EC50 [1]: 0.056 µM
Lysozyme: Human lysozyme, whole molecule | – | – | EC50 ([1]; read-out: Anti-KS EC50, Table 4): 0.054 µM; EC50 (HIV-1; read-out: Anti-HIV EC50): 0.05 µM; EC50 (HIV-1; read-out: Anti-HIV activity (EC50)): 0.05 µM; EC50 (HIV-1; read-out: anti-HIV EC50 (50% inhibition concentration)): 0.055 µM
RAYVAWRNR [HL9 (W109→Y)] | – | No Anti-HIV | –
CC(C)[C@H](NC(=O)[C@H](Cc1c[nH]c2ccccc12)NC(=O)[C@H](C)NC(=O)[C@@H](N)CCCNC(=N)N)C(=O)N[C@@H](C)C(=O)N[C@@H](Cc1c[nH]c2ccccc12)C(=O)N[C@@H](CCCCN)C(=O)N[C@@H](CC(N)=O)C(=O)N[C@@H](CCCNC(=N)N)C(=O)O [HL9 (R113→K), RAWVAWKNR] (H-RAWVAWKNR-OH) | > 100 | – | –
CC(C)[C@H](NC(=O)[C@H](Cc1c[nH]c2ccccc12)NC(=O)[C@H](C)NC(=O)[C@@H](N)CCCNC(=N)N)C(=O)N[C@@H](C)C(=O)N[C@@H](Cc1c[nH]c2ccccc12)C(=O)N[C@@H](CCCNC(=N)N)C(=O)N[C@@H](CC(N)=O)C(=O)N[C@@H](CCCNC(=N)N)C(=O)O [HL9, RAWVAWRNR] (H-RAWVAWRNR-OH) | – | – | EC50 [1]: 0.048 µM
CC(C)[C@H](NC(=O)[C@H](Cc1c[nH]c2ccccc12)NC(=O)[C@H](C)NC(=O)[C@@H](N)CC(N)=O)C(=O)N[C@@H](C)C(=O)N[C@@H](Cc1c[nH]c2ccccc12)C(=O)N[C@@H](CCCNC(=N)N)C(=O)N[C@@H](CC(N)=O)C(=O)N[C@@H](CCCNC(=N)N)C(=O)O [HL9 (R107→N), NAWVAWRNR] (H-NAWVAWRNR-OH) | > 100 | – | –
RVVRDPQGIRAWVAYRNR [HL18 (W112-Y)] | – | No Anti-HIV | –
CC(C)[C@H](NC(=O)[C@H](Cc1c[nH]c2ccccc12)NC(=O)[C@H](C)NC(=O)[C@@H](N)CCCNC(=N)N)C(=O)N[C@@H](C)C(=O)N[C@@H](Cc1c[nH]c2ccccc12)C(=O)N[C@@H](CCCNC(=N)N)C(=O)N[C@@H](CC(N)=O)C(=O)N[C@@H](CCCCN)C(=O)O [HL9 (R115→K), RAWVAWRNK] (H-RAWVAWRNK-OH) | > 100 | – | –
RAWVAYRNR [HL9 (W112→Y)] | – | No Anti-HIV | –
RVVRDPQGIRAYVAWRNR [HL18 (W109-Y)] | – | No Anti-HIV | –
RVVRDPQGI [HL18-N9] | – | No Anti-HIV | anti-HIV activity (HIV-1): no anti-HIV activity
